Experimental data: US20160115540A1, “PRODRUGS AND DRUGS” (Biogen MA Inc., priority 2013, published 2016)
Where a name gives a salt, the structure may show the parent alone.

System: jejunum
Assay: Transcriptional profiling on Affymetrix GeneChips, single dose, naïve mice: jejunum
Type: in vivo, C57BL/6 mice
Protocol: Treated mice were sacrificed at 2, 7, or 12 hours. Tissues (liver, spleen, kidney, jejunum, cortex, hippocampus, striatum and whole blood) were collected and analyzed by transcriptional profiling on mouse Affymetrix GeneChips.
Tissues (liver, spleen, kidney, jejunum, cortex, hippocampus, striatum and whole blood) were collected and analyzed by transcriptional profiling on mouse Affymetrix GeneChips.
Animals were exposed to CO2 and whole blood collected via cardiac puncture. Two 100 μl aliquots of whole blood were collected in 1.5 mL microcentrifuge tubes and snap frozen in liquid nitrogen. Peripheral (liver, spleen, kidney and jejunum) and CNS brain (cerebellum, hippocampus, striatum and cortex) tissues were harvested and snap frozen in liquid nitrogen, with special care taken to collect tissues of similar size and from the same location. All samples were stored at −80° C. until RNA extraction was conducted.
For RNA preparation, frozen tissues were placed in 2 mL RNAse-free 96-well blocks with 1.5 mL QIAzol Lysis Reagent (QIAgen) and a 3.2 mm stainless steel bead (BioSpec Products, Bartlesville, Okla.). Tissues were disrupted for four cycles of 45 seconds in a Mini-Beadbeater (Biospec Products). RNA was extracted in chloroform and the aqueous phase was mixed with an equal volume of 70% ethanol. Extracted RNA was applied to RNeasy 96 plates and purified by the spin method according to the manufacturer's protocol (RNeasy 96 Universal Tissue Protocol, QIAgen, Hilden Germany).
Automated sample amplifications and biotin labelings were carried out using the NuGEN Ovation RNA Amplification system V2 (Cat #3100), Ovation WB reagent (Cat #1300) and Encore Biotin module (Cat #4200) (NuGEN Technologies, Inc, San Carlos, Calif.) according to manufacturer's recommendations using an Arrayplex automated liquid handler (Beckman Coulter, Indianapolis, Ind.). Two micrograms of biotin labeled sscDNA probe were hybridized to Affymetrix GeneChip Affymetrix HT_MG-430_PM plate arrays with modified conditions as described in Allaire et al. Washing and staining of the hybridized arrays were completed as described in the GeneChip Expression analysis technical manual for HT plate arrays using the Genechip® Array Station (Affymetrix, Santa Clara, Calif.) with modifications as described in Allaire et al. The processed GeneChip® plate arrays were scanned using GeneTitan scanner (Affymetrix, Santa Clara, Calif.).
Affymetrix scans were subject to quality control (QC) measures. These tests included a visual inspection of the distribution of raw signal intensities and an assessment of RNA degradation, relative log expression (RLE), and normalized unsealed standard error (NUSE). All sample scans that passed these QC metrics were included in the analysis.
All CEL files were subjected to GC-content-based Robust Multi-array Average (GCRMA) normalization (version 2.20.0) (Irizarry R A, et al. Nucleic Acids Res 2003; 31:e15; Li C, et al. Genome Biol 2001; 2:[…]0032). Expression levels were log (base 2) transformed.
All calculations and analyses were carried out using R (version 2.11.1) and Bioconductor computational tools (Gentleman R. Springer Science+Business Media 2005).

[1] = 100DMF-vs-Veh or 100MMF-vs-Veh, 12 h

## COC(=O)/C=C/C(=O)O [MMF, monomethyl fumarate]
[1]
  FC Abcc3 (1428988_PM_at): 2.10
  FC Acsm5 (1437662_PM_at): 1.95
  FC Akr1b8 (1448894_PM_at): 18.78
  FC Akr1c12 (1450455_PM_s_at): 1.76
  FC Akr1c19 (1455454_PM_at): 3.53
  FC Blvrb (1451386_PM_at): 1.54
  FC Cbr3 (1427912_PM_at): 32.24
  FC Ces1e (1419510_PM_at): 2.77
  FC Ces1f (1424266_PM_s_at): 6.54
  FC Ces1g (1449486_PM_at): 9.45
  FC G6pd2 (1422327_PM_s_at): 1.83
  FC Gpx2 (1449279_PM_at): 1.54
  FC Gsr (1421816_PM_at): 2.67
  FC Gss (1441931_PM_x_at): 1.55
  FC Gsta2 (1421040_PM_a_at): 6.66
  FC Gsta2 (1421041_PM_s_at): 2.09
  FC Gsta3 (1423436_PM_at): 10.80
  FC Gsta3 (1423437_PM_at): 7.97
  FC Gstm1 (1425627_PM_x_at): 4.61
  FC Gstm1 (1448330_PM_at): 4.27
  FC Gstm3 (1427473_PM_at): 2.14
  FC Gstm3 (1427474_PM_s_at): 1.58
  FC Gstm4 (1424835_PM_at): 5.43
  FC Gstm6 (1422072_PM_a_at): 2.19
  FC Nqo1 (1423627_PM_at): 2.34
  FC Pir (1429001_PM_at): 4.19
  FC Setd4 (1425239_PM_at): 1.60
  FC Setd4 (1460373_PM_a_at): 1.56
  FC Slc5a4b (1422757_PM_at): 2.16
  FC Ugt2b5 (1419622_PM_at): 5.00
  FC Ugt2b35 (1439624_PM_at): 2.45
  FC Ugt2b36 (1455595_PM_at): 3.03
100MMF-vs-Veh, 2 h
  FC 6-Sep (1424181_PM_at): 1.56
  FC 1443118_PM_at: 1.69
  FC 1444265_PM_at: 1.93
  FC 1445980_PM_at: 2.43
  FC 1446045_PM_at: 1.69
  FC 1447411_PM_at: 2.81
  FC 1459091_PM_at: 2.02
  FC 2010002N04Rik (1423306_PM_at): 1.57
  FC 9030409G11Rik (1434169_PM_at): 1.52
  FC 9130221J17Rik (1443159_PM_at): 2.36
  FC Acss2 (1446542_PM_at): 1.84
  FC Akr1b8 (1448894_PM_at): 8.24
  FC Akr1c19 (1455454_PM_at): 2.33
  FC Areg (1421134_PM_at): 2.71
  FC Blvrb (1451386_PM_at): 1.57
  FC Bmp2 (1423635_PM_at): −1.55
  FC Cbr1 (1460196_PM_at): 1.53
  FC Cbr3 (1427912_PM_at): 55.49
  FC Ces1f (1424266_PM_s_at): 2.71
  FC Ces1g (1449486_PM_at): 3.68
  FC Dnase2a (1430135_PM_at): 1.79
  FC Dppa5a (1416552_PM_at): 2.64
  FC Ereg (1419431_PM_at): 2.00
  FC Ero1l (1419030_PM_at): 1.90
  FC Esd (1441604_PM_at): 1.52
  FC Figf (1438953_PM_at): 1.63
  FC G6pd2 (1422327_PM_s_at): 1.74
  FC Gabarapl1 (1416418_PM_at): 1.52
  FC Gclc (1424296_PM_at): 3.99
  FC Gclc (1455959_PM_s_at): 3.06
  FC Gsr (1421816_PM_at): 2.19
  FC Gss (1441931_PM_x_at): 1.92
  FC Gss (1448273_PM_at): 1.69
  FC Gsta3 (1423436_PM_at): 3.23
  FC Gsta3 (1423437_PM_at): 3.64
  FC Gstm1 (1416416_PM_x_at): 2.38
  FC Gstm1 (1425627_PM_x_at): 2.70
  FC Gstm1 (1448330_PM_at): 2.47
  FC Gstm3 (1427473_PM_at): 2.51
  FC Gstm3 (1427474_PM_s_at): 1.57
  FC Hfe 1422645_PM_at: 1.73
  FC Htatip2 (1451814_PM_a_at): 1.53
  FC LOC100504040 (1457279_PM_at): 2.24
  FC Lpin2 (1452837_PM_at): 1.61
  FC Lrp8 (1440882_PM_at): 2.23
  FC Mafg (1434054_PM_at): 1.95
  FC Mafg (1448916_PM_at): 2.01
  FC Nqo1 (1423627_PM_at): 2.16
  FC Osgin1 (1424022_PM_at): 1.98
  FC Prr5l (1452834_PM_at): −1.64
  FC Prss8 (1418320_PM_at): 2.41
  FC Setd4 (1425239_PM_at): 2.11
  FC Setd4 (1435405_PM_at): 1.93
  FC Setd4 (1460373_PM_a_at): 1.87
